# Measured values reported in patent US20210330611A1, “THERAPY FOR NEUROLOGICAL DISEASES/DISORDERS” (priority 2020, published 2021).
# Structures can show the parent of a compound that is named as a salt. Where two headings read alike, the source gives them in different places.
# How the values were obtained:
# primary rat microglia [1] = details: rat
# [2] = test system: fibrin- and LPS-induced microglia activation; assay: cells; type: cell-based, rat; details: for inhibition at 10 µM: Rattus norvegicus, Microglia
# primary rat microglia [3] = details: rat; remark: listed apart in the source
# [4] = test system: LPS-induced microglia activation; assay: Image-based assay of LPS-induced microglia activation (HTS and dose response); type: cell-based, rat; details: Rattus norvegicus, Microglia; for inhibition at 10 µM: primary microglia HTS, LPS stimulation, increased cell size (>800 μm^2) as marker of activation, read-out: LPS % inhibition
# in vitro [5] = details: rat, Cell Toxicity IC50 (uM) [cFib assay]
# primary rat microglia [6] = assay: Cell toxicity (dead cells, size <150 μm2) in LPS assay; details: read-out: Cell Toxicity IC50 (uM) [LPS assay]; LPS assay
# in vitro [7] = details: rat
# [8] = test system: fibrin-induced microglia activation; assay: Image-based assay of fibrin-induced microglia activation (HTS and dose response); type: cell-based, rat; details: for IC50 / inhibition at 10 µM: Rattus norvegicus, Microglia; for inhibition at 10 µM: primary microglia HTS, fibrin stimulation, increased cell size (>800 μm^2) as marker of activation, read-out: Fibrin % inhibition
# [9] = HTS of 1907 compounds, quadrant by fibrin and LPS inhibition
# [10] = Table 3, read-out: Cherry-picked Hit (Suppl. Table 7)
# [11] = HTS hit classification, read-out: Hit
# [12] = quadrant by fibrin and LPS inhibition in HTS of 1907 compounds
# [13] = 48 h, Table 1, dose response 0.001-20 μM, triplicates, primary rat microglia, 48 h, read-out: LPS IC50
# [14] = LPS-induced microglia activation, dose response, read-out: LPS IC50 (uM) (Suppl. Table 7)
# [15] = Table 3, read-out: LPS IC50 (uM) (Suppl. Table 7)
# [16] = dose response, LPS-induced microglia activation, read-out: LPS IC50
# [17] = 48 h, Table 1, dose response 0.001-20 μM, triplicates, primary rat microglia, 48 h, read-out: Fibrin IC50
# [18] = Table 3, read-out: Fibrin IC50 (uM) (Suppl. Table 7)
# [19] = dose response, fibrin-induced microglia activation, read-out: Fibrin IC50
# [20] = fibrin-induced microglia activation, dose response, read-out: Fibrin IC50 (uM) (Suppl. Table 7)
# 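Wherever Fibrin % cell toxicity is given: share of dead cells sized under 150 µm2 at 10 µM in fibrin-stimulated microglia HTS.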
SMILES,Fibrin % cell toxicity (primary rat microglia [1]) [%],"Quadrant (FIG. 5b) [2, 9]","inhibition at 10 µM [2, 10] [%]","inhibition at 10 µM [2, 11] [%]","Quadrant (FIG. 5b) ([2]; Table 1, screen at 10 μM)","Quadrant (FIG. 5b) ([2]; Table 3, screen at 10 μM)","Quadrant (FIG. 5b) [2, 12]",LPS % cell toxicity (primary rat microglia [3]) [%],"IC50 [4, 13] [µM]",inhibition at 10 µM ([4]; 48 h) [%],"IC50 [4, 14] [µM]","IC50 [4, 15] [µM]","IC50 [4, 16] [µM]",IC50 (in vitro [5]; Table 3) [µM],IC50 (in vitro [5]; cFib assay) [µM],IC50 (primary rat microglia [6]) [µM],IC50 (in vitro [7]) [µM],"IC50 [8, 17] [µM]","IC50 [8, 18] [µM]","IC50 [8, 19] [µM]",also measured
"C[C@H]1C[C@@H]2[C@H]([C@@H](O)C[C@@]3(C)[C@H]2CC[C@]3(O)C(=O)CO)[C@@]2(C)C=CC(=O)C=C12 [Methylprednisolone, reference compound]",3,Q2,> 50,> 50,Q2,Q2,Q2,2,0.02,86,0.02,0.02,0.02,> 20,> 20,> 20,> 20,< 0.001,< 0.001,< 0.001,"Quadrant (FIG. 5b) ([2]; Table 2, screen at 10 μM): Q2; IC50 ([4]; Table 7, read-out: LPS_IC50): 0.002 µM; IC50 ([8]; Table 7, read-out: fib_IC50): 0.003 µM; IC50 [8, 20]: < 0.001 µM; inhibition at 10 µM [8]: 110%"
"O=C(NC(Cc1cc(=O)[nH]c2ccccc12)C(=O)O)c1ccc(Cl)cc1 (centres unmarked) [Rebamipide, reference compound]",1,Q2,> 50,> 50,Q2,Q2,Q2,2,11,72,11,11,11,> 20,> 20,> 20,> 20,2,2,2,"Fibrin Selectivity [8]: 6; Fibrin Selectivity (LOG10) [8]: 0.80; IC50 [8, 20]: 2 µM; inhibition at 10 µM [8]: 65%"
"CC[C@]1(O)C[C@@H]2CN(CCc3c([nH]c4ccccc34)[C@@](C(=O)OC)(c3cc4c(cc3OC)N(C)[C@H]3[C@@](O)(C(=O)OC)[C@H](OC(C)=O)[C@]5(CC)C=CCN6CC[C@]43[C@@H]65)C2)C1 [Vinblastine sulfate, reference compound]",2,Q2,> 50,> 50,Q2,Q2,Q2,8,0.2,108,0.2,0.2,0.2,> 20,> 20,> 20,> 20,0.02,0.02,0.02,"Quadrant (FIG. 5b) ([2]; Table 2, screen at 10 μM): Q2; Activity ([2]; Table 7, fib = fibrin, LPS, tox = toxicity): fib/LPS; IC50 ([4]; Table 7, read-out: LPS_IC50): 0.628 µM; Fibrin Selectivity [8]: 11; Fibrin Selectivity (LOG10) [8]: 1.05; IC50 ([8]; Table 7, read-out: fib_IC50): 1.39 µM; IC50 [8, 20]: 0.02 µM; inhibition at 10 µM [8]: 106%"
"O=P(O)(O)C(O)(Cn1ccnc1)P(=O)(O)O [Zoledronic acid, reference compound]",2,Q3,> 50,> 50,Q3,Q3,Q3,1,8,49,8,8,8,> 20,> 20,> 20,> 20,2,2,2,"Fibrin Selectivity [8]: 4; Fibrin Selectivity (LOG10) [8]: 0.55; IC50 [8, 20]: 2 µM; inhibition at 10 µM [8]: 83%"
